Read-outs that look alike come from different tables or passages of the source.
Experiments:
[1] = target: T1, CCR7 (Homo sapiens, UniProt P32248); assay: HTS primary reporter assay, human CCR7; assay type: cell-based
T1 sequence (P32248 25-378): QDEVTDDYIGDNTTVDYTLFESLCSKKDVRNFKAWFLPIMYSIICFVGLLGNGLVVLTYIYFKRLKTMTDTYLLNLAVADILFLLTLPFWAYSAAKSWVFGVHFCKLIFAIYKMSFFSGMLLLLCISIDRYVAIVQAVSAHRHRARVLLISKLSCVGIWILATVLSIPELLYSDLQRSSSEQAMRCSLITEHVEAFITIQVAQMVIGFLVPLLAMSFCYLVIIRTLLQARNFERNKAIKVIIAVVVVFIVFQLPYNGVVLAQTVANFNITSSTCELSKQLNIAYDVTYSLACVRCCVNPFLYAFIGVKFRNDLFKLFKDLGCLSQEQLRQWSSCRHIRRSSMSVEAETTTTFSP

[2] = target: T2, Murine CCR7 (Mus musculus, UniProt P47774); assay: HTS primary reporter assay, murine CCR7; assay type: cell-based
T2 sequence (P47774 25-378): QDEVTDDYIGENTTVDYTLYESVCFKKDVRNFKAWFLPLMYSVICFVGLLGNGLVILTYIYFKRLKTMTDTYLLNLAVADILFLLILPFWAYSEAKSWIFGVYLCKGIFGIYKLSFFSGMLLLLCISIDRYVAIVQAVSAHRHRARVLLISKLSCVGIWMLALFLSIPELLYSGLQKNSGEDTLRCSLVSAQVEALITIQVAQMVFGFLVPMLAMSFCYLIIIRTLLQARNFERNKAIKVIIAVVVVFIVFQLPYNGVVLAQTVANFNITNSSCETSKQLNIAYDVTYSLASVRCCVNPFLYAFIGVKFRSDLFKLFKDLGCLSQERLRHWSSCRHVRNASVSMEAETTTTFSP

[3] = Cytotoxicity (Table 1); assay type: cell-based
Excerpt: Perhaps the most important goal of HSCT research is to separate the beneficial anti-tumor effects mediated by donor T cells from the deleterious GVHD responses that they are also capable of producing. […] Unfortunately, there were no drugs or therapeutic antibodies available for clinical use. As a result, we pursued our high throughput screening (HTS) effort to identify novel small molecule antagonists with anti-CCR7 activity. The initial drug discovery process identified cosalane as a CCR7 antagonist. A substantial amount of work has subsequently been done with the compound in an effort to prevent acute graft-versus-host disease in mouse bone marrow transplant models.

[4] = test system: human PBMC into NSG xenogeneic aGVHD system; assay: Xenogeneic aGVHD, human PBMC into NSG mice, cells incubated ex vivo; assay type: in vivo, mouse; parameters: survival times: dose or concentration left out as unconfirmed
[5] = test system: donor (eGFP+) cells in the spleen; assay: Donor engraftment in host spleen by flow cytometry; assay type: in vivo, mouse; settings: whole stem cell product incubated 15 μg/ml, transplant day +10
Protocol: Purified Tcons and TCD BM cells were obtained from B6 donors transgenic for enhanced green fluorescent protein (eGFP^+) and were mixed together prior to being incubated with cosalane or DMSO. The cells were subsequently administered to irradiated B6D2 recipients and both bone marrow and Tcon engraftment then determined by flow cytometry within the host spleen on transplant day +10. Donor derived cells were distinguished from residual host cells by virtue of their eGFP positivity.

[6] = test system: Epstein Barr virus (EBV); assay type: cell-based, human
[7] = test system: B6 into B6D2 aGVHD model
[8] = target: T1, CCR7; settings: cited from earlier work
[9] = cited from earlier work
[10] = target: T3, CCR1 (Homo sapiens, UniProt P32246); settings: cited from earlier work
T3 sequence (P32246 1-355): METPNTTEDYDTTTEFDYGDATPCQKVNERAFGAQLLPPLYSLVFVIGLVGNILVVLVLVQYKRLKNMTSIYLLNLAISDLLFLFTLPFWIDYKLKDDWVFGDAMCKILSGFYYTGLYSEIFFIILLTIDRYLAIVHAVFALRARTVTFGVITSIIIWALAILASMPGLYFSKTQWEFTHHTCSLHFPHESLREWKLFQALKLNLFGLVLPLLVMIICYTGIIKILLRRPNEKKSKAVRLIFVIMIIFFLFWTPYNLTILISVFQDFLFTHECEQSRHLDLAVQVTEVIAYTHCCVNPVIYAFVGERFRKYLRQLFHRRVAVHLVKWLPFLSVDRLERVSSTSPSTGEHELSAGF

[11] = test system: herpes simplex 1 and 2 and human cytomegalovirus; settings: cited from earlier work
[12] = in vitro, previous reports; cited from earlier work
[13] = test system: CCR7-/- B6 into BALB/c aGVHD model; assay: aGVHD induced with CCR7-/- B6 Tcons into BALB/c
Protocol: (A, B) BALB/c mice were lethally irradiated on transplant day −1. On day 0 recipients were administered 5×10^6 TCD B6 BM cells +/−3×10^6 CCR7^−/− B6 Tcons. Donor Tcons were incubated ex vivo with DMSO vehicle or cosalane diluted in normal saline at 15 μg/ml. The cells were then mixed with untreated TCD B6 BM cells and administered immediately to recipient mice by tail vein injection. Mice were then followed for survival and scored for aGVHD. N=2 BM only. N=6 for all other treatment groups. […] (C, D) BALB/c mice were transplanted as in A, B. Donor CCR7^−/− B6 Tcons, however, were incubated ex vivo with DMSO vehicle or cosalane diluted in normal saline at 30 μg/ml. N=2 BM only. N=9 for all other treatment groups.
As a result, we repeated our CCR7^−/− B6 into BALB/c transplant but pre-incubated the donor Tcons with an identical cosalane strength of 30 μg/ml.

[14] = test system: P815 murine mastocytoma cells; assay: P815 graft-versus-leukemia model with in vivo imaging
Protocol: B6D2 mice were lethally irradiated on transplant day −1. On day 0 recipients were administered 3×10^6 TCD B6 BM cells and 2.5×10^4 luciferase^+ P815 murine mastocytoma cells (H-2^d)+/−4×10^6 B6 Tcons. Donor Tcons were incubated ex vivo with DMSO vehicle or cosalane diluted in normal saline at 15 μg/ml. The cells were then mixed with untreated BM/tumor cells and administered immediately to recipient mice by tail vein injection. Mice were then serially imaged twice weekly following the intraperitoneal injection of luciferin. […] Recipient mortality was attributed to tumor versus aGVHD based on the tumor burden by imaging and clinical aGVHD scores at the time of death. Exposure time=4 seconds for all panels. N=5 per treatment group.
B6D2 mice were lethally irradiated on transplant day −1. On day 0 recipients were administered 3×10^6 TCD B6 BM cells and 2.5×10^4 luciferase^+ P815 murine mastocytoma cells. Some recipients also received 2×10^6 DMSO treated B6 Tcons or 4×10^6 cosalane treated B6 Tcons (15 μg/ml). Mice were then serially imaged twice weekly following the intraperitoneal injection of luciferin. […] Exposure time=4 seconds for all panels. The “mixed” cage on the far right contained one mouse each of the BM/P815 only, BM/P815 plus DMSO Tcons, and BM/P815 plus cosalane Tcons groups. N=6 per treatment group.
P815 graft-versus-leukemia model and in vivo imaging: Luciferase transfected P815 murine mastocytoma cells (H-2^d) were a kind gift from the laboratory of Dr. Jonathan Serody. P815 cells were cultured and then mixed with TCD bone marrow cells prior to transplantation. A tumor dose of 2.5×10^4 P815 cells was used for all experiments. Recipients were then serially imaged using an IVIS Kinetic Optical real-time imaging system to monitor for in vivo tumor growth twice weekly. For imaging, recipients were dosed with 3 mg of D-luciferin (Perkin Elmer) by intraperitoneal injection 10 minutes prior to the procedure. Mice were then anesthetized with isoflurane during image acquisition. Unless otherwise indicated an exposure time of 4 seconds was used for all images.
As a result, we evaluated cosalane's effects on GVL immunity using a well described P815 murine mastoma (H-2^d) leukemia model. Here, B6D2 mice were lethally irradiated and then administered 3×10^6 TCD B6 bone marrow cells containing 25,000 luciferase transfected P815 cells +/−4×10^6 B6 Tcons to drive a GVL response. One half of those mice receiving BM/Tumor plus Tcons were administered Tcons incubated with DMSO and the other one half received cosalane treated Tcons. Recipients were subsequently evaluated by serial in vivo imaging in order to monitor tumor growth in each treatment group. […]

[15] = BM plus Tcons incubated 15 μg/ml
[16] = Tcons incubated 10 μg/ml (13 μM) in saline alone, one hour
[17] = 4×10^6 Tcons incubated 15 μg/ml
[18] = 4×10^6 cosalane treated Tcons vs 2×10^6 DMSO Tcons

CC(C)CCC[C@@H](C)[C@H]1CC[C@H]2[C@@H]3CC[C@H]4C[C@@H](CCC=C(c5cc(Cl)c(O)c(C(=O)O)c5)c5cc(Cl)c(O)c(C(=O)O)c5)CC[C@]4(C)[C@H]3CC[C@]12C [Cosalane, cosalane]
IC50 ([1]; ligand CCL19, read-out: Human CCR7 IC50 To CCL19): 207 nM | IC50 ([1]; ligand CCL21, read-out: Human CCR7 IC50 To CCL21): 2660 nM | IC50 ([2]; ligand CCL19, read-out: Murine CCR7 IC50 To CCL19): 193 nM | IC50 ([2]; ligand CCL21, read-out: Murine CCR7 IC50 To CCL21): 1980 nM | Cytotoxicity [3]: >50 (non-toxic) μM | survival ([4]; human PBMCs incubated 35 μg/ml): most recipients surviving to the end of the study period | survival times ([4]; human PBMCs incubated with cosalane): prolonged survival times | donor cell numbers in the spleen [5]: did not produce any differences in donor monocyte, neutrophil, T cell, or B cell numbers | EBV infection, isolated pretreatment of target cells ([6]; 20 μg/ml pretreatment one hour, washed): reduced viral infection to a significant degree | EBV infectivity, compound present throughout ([6]; 20 μg/ml, Raji cells, 48 hours): significantly limited EBV infectivity | recipients surviving to the end of the study period, combined treatment ([7]; BM cells and Tcons incubated 15 μg/ml): 100% | delayed bone marrow failure [7, 15]: no clinical signs of delayed bone marrow failure | group surviving to the end of the study observation period [7, 15]: 90% | aGVHD scores [7, 16]: reduced aGVHD scores | median survival times [7, 16]: improved median survival times | aGVHD ([7]; Tcons incubated 10 μg/ml in saline plus 1% albumin): developed severe aGVHD similar to DMSO controls | survival, isolated treatment of donor Tcons ([7]; Tcons incubated 15 μg/ml, BM DMSO): 100% | transplant outcomes, dose dependence ([7]; Tcons incubated 10, 20 or 30 μg/ml): improved transplant outcomes with increasing dosages | aGVHD attenuation, whole stem product treated ([7]; mouse, in vivo): attenuate aGVHD at least as well as what was observed previously with the isolated treatment of Tcons alone | outcomes, isolated treatment of donor BM cells alone ([7]; mouse, in vivo): did not significantly improve outcomes | activity against CCL19 versus CCL21 [8]: approximately 10 fold | tissue accumulation ([9]; administered intravenously): propensity to accumulate within the liver | oral bioavailability ([9]; in vivo, po): very poor oral bioavailability | CCR1 dependent chemotaxis in response to CCL3 and CCL4 [10]: inactive | CCR1 dependent chemotaxis in response to CCL5 [10]: blocked | viral cytopathic effect induced by herpes viruses [11]: block viral cytopathic effect | therapeutic index [12]: > 100 | aGVHD with CCR7-/- donor Tcons ([13]; Tcons incubated 15 μg/ml): completely inactive | aGVHD scores with CCR7-/- donor Tcons ([13]; Tcons incubated 30 μg/ml): trend for lower aGVHD scores | survival times with CCR7-/- donor Tcons ([13]; Tcons incubated 30 μg/ml): longer survival times | overall survival times [14, 17]: longest overall survival times | tumor growth [14, 17]: substantial suppression of tumor growth | mice died of aGVHD [14, 18]: 3/6 | mice succumbed to malignancy [14, 18]: none succumbed to malignancy

From patent publication US12208105B2, “Methods for attenuating graft-versus-host disease and opportunistic infections” (priority 2018, dated 2025)
